Experimental data as given in PubChem BioAssay (NCI).
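Exposure lasted 48 hours, with cells grown in 96-well plates and compounds tested at five concentrations. GI50: concentration for 50% inhibition of growth. TGI: concentration producing complete growth inhibition.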

Tests used:
Assay in all cases: NCI-60 cell line screen, 48 h
786-0 renal = tested on: 786-0 renal
A498 renal = tested on: A498 renal
CAKI-1 renal = tested on: CAKI-1 renal
HCT-15 colon = tested on: HCT-15 colon
HT29 colon = tested on: HT29 colon
MCF7 breast = tested on: MCF7 breast
NCI-H23 lung = tested on: NCI-H23 lung
NCI/ADR-RES ovarian = tested on: NCI/ADR-RES ovarian
SF-295 CNS = tested on: SF-295 CNS
SK-MEL-5 melanoma = tested on: SK-MEL-5 melanoma
TK-10 renal = tested on: TK-10 renal
UO-31 renal = tested on: UO-31 renal

Work on CNCc1cccc2c1OCCOCCN(C)C(=O)CN(C)S(=O)(=O)c1ccc(cc1)-c1cnc(N)c(n1)C(=O)N2 yielded a GI50 (786-0 renal) of 0.669 µM, a TGI (786-0 renal) of 2.09 µM and a GI50 (A498 renal) of 1.82 µM. For the same molecule, the TGI (A498 renal) was 7.34 µM, the GI50 (CAKI-1 renal) was 2.35 µM and the TGI (CAKI-1 renal) was greater than 100 µM. The GI50 (HCT-15 colon) was 6.97 µM, the TGI (HCT-15 colon) was greater than 100 µM and the GI50 (HT29 colon) was 2.85 µM. It also gave a TGI (HT29 colon) greater than 100 µM, a GI50 (MCF7 breast) of 0.0853 µM and a TGI (MCF7 breast) greater than 100 µM. For the same molecule, the GI50 (NCI-H23 lung) was 0.299 µM, the TGI (NCI-H23 lung) was 3.47 µM and the GI50 (NCI/ADR-RES ovarian) was greater than 100 µM. It also gave a TGI (NCI/ADR-RES ovarian) greater than 100 µM, a GI50 (SF-295 CNS) of 1.77 µM and a TGI (SF-295 CNS) greater than 100 µM. It also gave a GI50 (SK-MEL-5 melanoma) of 6.63 µM, a TGI (SK-MEL-5 melanoma) greater than 100 µM and a GI50 (TK-10 renal) of 2.71 µM. For the same molecule, the TGI (TK-10 renal) was greater than 100 µM, the GI50 (UO-31 renal) was greater than 100 µM and the TGI (UO-31 renal) was greater than 100 µM.
